What all share (assay): drug sensitivity score (DSS) (DSS score); higher = more sensitive (stronger growth inhibition); extreme values may be limits of the assay
In assay [1] the test system is Ba/F3 P210-BCR-ABL1 RUNX1wt/wt control (mouse). The method, boiled down: (§1)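 Mouse Ba/F3 cells, either CRISPR/Cas9-edited at a target exon or edited-control clones, were screened against a 528-compound library on pre-printed 384-well plates. Each compound was tested at five concentrations across a 10,000-fold range, with 10,000 cells per well in RPMI with 10% FBS for 72 h at 37 °C and 5% CO2. CellTiter-Glo luminescence was scaled between vehicle and positive-control wells, and each dose-response was summarised as a drug sensitivity score. Scores were averaged over two replicates.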

Assay [2] has as its system Ba/F3 P210-BCR-ABL1 RUNX1-/mut (mouse). The method, boiled down: as §1
Assay [3] has as its system Ba/F3 P210-BCR-ABL1 RUNX1-/- (mouse). The method in brief:
as §1

± gives the standard deviation of the averaged measurements.

On to `CO[C@H]1C[C@@H]2CC[C@@H](C)[C@@](O)(O2)C(=O)C(=O)N2CCCC[C@H]2C(=O)O[C@H]([C@H](C)C[C@@H]2CC[C@@H](OP(C)(C)=O)[C@H](OC)C2)CC(=O)[C@H](C)/C=C(\C)[C@@H](O)[C@@H](OC)C(=O)[C@H](C)C[C@H](C)/C=C/C=C/C=C/1C` [Ridaforolimus], for which the drug sensitivity score in assay [1] was determined as 0.15 ± 0.21; in assay [2] it was 15.7 ± 2.7; in assay [3], 13.3 ± 3.8.

For `COc1cc(OC)c(/C=C/S(=O)(=O)Cc2ccc(OC)c(NCC(=O)O)c2)c(OC)c1` [Rigosertib], the drug sensitivity score in assay [1] was determined as 15.6 ± 1.4; in assay [2] it was 27.05 ± 0.071; in assay [3], 26.8 ± 1.1.

In the case of `C[C@H]1CNCCCN1S(=O)(=O)c1cccc2cncc(F)c12` [Ripasudil], the drug sensitivity score in assay [1], in assay [2] and in assay [3] was 0 each time.

For the molecule `C=CC(=O)Nc1cccc(Nc2nc(Nc3ccc(N4CCN(C(C)=O)CC4)cc3OC)ncc2C(F)(F)F)c1` [Rociletinib], the drug sensitivity score in assay [1] was found to be 4.4 ± 0.42; in assay [2], 7.45 ± 0.071; in assay [3], 8.6 ± 1.6.

Turning to `O=C(CCCCCCNC(=O)c1cnc(N(c2ccccc2)c2ccccc2)nc1)NO` [Rocilinostat], the drug sensitivity score was found to be 6.25 ± 0.071 in assay [1], 9.05 ± 2.2 in assay [2] and 10.2 ± 1.5 in assay [3].

Regarding `C/C=C1\NC(=O)[C@H]2CSSCC/C=C/[C@H](CC(=O)N[C@H](C(C)C)C(=O)N2)OC(=O)[C@H](C(C)C)NC1=O` [Romidepsin], the drug sensitivity score in assay [1] was found to be 29.4 ± 0.42; in assay [2], 27.6 ± 2.7; in assay [3], 29.85 ± 0.071.

Consider `Cc1nc(C(=O)NCC(=O)O)c(O)c2ccc(Oc3ccccc3)cc12` [Roxadustat], for which the drug sensitivity score in assay [1] came out at 0; in assay [2] it was 0.95 ± 1.3; in assay [3] it was 0.6 ± 0.85.

Turning to `CN(C)C[C@@H]1CCn2cc(c3ccccc32)C2=C(C(=O)NC2=O)c2cn(c3ccccc23)CCO1` [Ruboxistaurin], the figures for the drug sensitivity score in assay [1], in assay [2] and in assay [3] were 7.7 ± 0.99, 9.25 ± 2.2 and 9.7 ± 0.28, respectively.

`N#CC[C@H](C1CCCC1)n1cc(-c2ncnc3[nH]ccc23)cn1` [Ruxolitinib]: the drug sensitivity score in assay [1] worked out at 0; in assay [2] it was 1.45 ± 2; in assay [3], 2.2 ± 0.71.

Consider `CC(C)N(CCCNC(=O)Nc1ccc(C(C)(C)C)cc1)C[C@H]1O[C@@H](n2cc(Br)c3c(N)ncnc32)[C@H](O)[C@@H]1O` [SGC0946], for which the drug sensitivity score in assay [1] came out at 0; in assay [2], 3.7 ± 5.2; in assay [3], 3.45 ± 2.3.

For the molecule `COc1ccc(CCc2nc3cc(-c4c(C)noc4C)ccc3n2C[C@H](C)N2CCOCC2)cc1Cl` [SGC-CBP30], the drug sensitivity score in assay [1] came out at 5.5 ± 0.28; in assay [2], 12.7 ± 4.6; in assay [3] it was 10.2 ± 2.8.

In the case of `CN1CCC(CNc2ccc3ncc(-c4cccc(OC(F)(F)F)c4)n3n2)CC1` [SGI-1776], the figures for the drug sensitivity score in assay [1], in assay [2] and in assay [3] were 5.2 ± 0.14, 9.65 ± 2.2 and 10.1 ± 0.71, respectively.

Turning to `CN(CC(=O)N(Cc1ccc(C2CCCCC2)cc1)c1ccc(C(=O)O)cc1)S(=O)(=O)c1c(F)c(F)c(F)c(F)c1F` [SH-4-54], the drug sensitivity score in assay [1] came to 5.1 ± 0.14; in assay [2] it was 8.35 ± 5.2; in assay [3], 8.95 ± 1.1.

Take `CCc1c2c(nc3ccc(O)cc13)-c1cc3c(c(=O)n1C2)COC(=O)[C@]3(O)CC` [SN-38]: the drug sensitivity score is 26.9 ± 0.42 in assay [1], 29.1 ± 1.8 in assay [2] and 33.2 ± 0.99 in assay [3].

On to `Cc1cc2c(C(=O)NC[C@H](C)c3ccccc3)c(O)c(O)cc2c(O)c1-c1c(C)cc2c(C(=O)NC[C@H](C)c3ccccc3)c(O)c(O)cc2c1O` [Sabutoclax], for which the drug sensitivity score in assay [1] worked out at 19.1 ± 0.49; in assay [2], 23.5 ± 7.5; in assay [3] it was 21.8 ± 6.7.

For the origin of these results see the supplement of paper PMC8024199.
